In paper PMC7782499, “Progerinin, an optimized progerin-lamin A binding inhibitor, ameliorates premature senescence phenotypes of Hutchinson-Gilford progeria syndrome” (Communications Biology, 2021):
Several values for one entry are separate records, joined by “and”; a condition that tells them apart may be missing. Identical values can stand only once.

Target: T1, progerin (Homo sapiens, UniProt P02545)
T1 sequence (P02545 1-614 isoform P02545-6): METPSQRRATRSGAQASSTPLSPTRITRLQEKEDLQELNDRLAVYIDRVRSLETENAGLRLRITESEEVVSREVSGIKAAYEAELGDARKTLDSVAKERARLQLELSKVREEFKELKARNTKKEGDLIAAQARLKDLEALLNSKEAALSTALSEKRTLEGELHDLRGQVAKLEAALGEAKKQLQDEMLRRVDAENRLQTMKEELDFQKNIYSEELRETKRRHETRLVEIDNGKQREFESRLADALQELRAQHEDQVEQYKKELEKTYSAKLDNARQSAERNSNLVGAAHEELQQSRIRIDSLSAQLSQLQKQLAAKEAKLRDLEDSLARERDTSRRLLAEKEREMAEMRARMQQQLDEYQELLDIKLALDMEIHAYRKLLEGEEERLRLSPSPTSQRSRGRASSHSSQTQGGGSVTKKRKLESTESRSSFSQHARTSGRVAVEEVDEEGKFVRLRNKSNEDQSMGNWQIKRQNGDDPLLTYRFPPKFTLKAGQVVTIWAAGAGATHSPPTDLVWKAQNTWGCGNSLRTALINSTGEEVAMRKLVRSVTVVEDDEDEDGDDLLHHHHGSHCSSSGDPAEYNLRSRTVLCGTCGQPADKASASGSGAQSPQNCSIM
Assay: Progerin expression in HGPS patient cells (western blot, immunostaining)
Format: cell-based
Set-up: host or cells: HGPS patient fibroblasts
Details: for Progerin intensity after treatment with chemicals, Ave: average; for Progerin intensity after treatment with chemicals: single replicates
Procedure: Fig. 1 SLC-D011 ameliorates premature aging features of HGPS. A. HEK293 cells were transiently transfected with expression vector encoding wild-type lamin A (WT-LA), lamin A-C661A (LA-C661A), progerin, or progerin-C611A. LA-C661A or progerin-C611A with point mutation in CaaX motif was predicted to be lack of farnesylation, […] that of authentic WT-LA or progerin. GFP-conjugated empty expression vector was used as a negative control. Cells were visualized at 24 h after transfection. B Transient transfection of HEK293 cells with expression vector encoding progerin or progerin-G611A leads to reduced expression of H3K9me3 (n = 3 independent experiments; two-tailed Student’s t test). C. JH4 derivatives (JH010 and SLC-D011(D011)) inhibit lamin A and progerin interaction. For binding inhibition assay, bead-conjugated lamin A (GST-LA) was incubated with HEK293 cells, transiently transfected with GFP-progerin (PG), and treated with indicated chemicals. Actin was used as a loading control. PPT, co-precipitated materials with recombinant proteins; Sup supernatant. 5 μM of each chemical was used for binding assay. […] H3K9me3 reduction is a well-known marker for premature aged cells. Thus, H3K9me3 expression was evaluated by immunostaining. […] E SLC-D011 obviously suppresses progerin expression. […] F SLC-D011 reduces the expression of progerin in other HGPS cells (AG11513 and AG11498, Coriell Cell Repositories). […] G JH4, JH010, and SLC-D011 promote cell proliferation. Cell viability was determined by MTT assay after incubation with chemicals for 7 days (n = 3 independent experiments; two-tailed Student’s t test). H JH4, JH010, and SLC-D011 show similar activity for ameliorating nuclear deformation. After incubation with chemicals for 7 days, cells were stained with progerin and H3K9me3 antibodies (n = 3 independent experiment; two-tailed Student’s t test), **p < 0.001. Data are reported as mean ± SD. “Con” means Dimethyl sulfoxide (DMSO)-treated control. The data are normalized to DMSO-treated cells.
Protein was extracted from cells using a radioimmunoprecipitation assay (RIPA) buffer (50 mM Tris-Cl, pH 7.5, 150 mM NaCl, 1% NP-40, 0.1% SDS, and 10% sodium deoxycholate). Samples were separated by sodium dodecyl sulfate-polyacrylamide gel electrophoresis (SDS-PAGE) and transferred to polyvinylidene difluoride (PVDF) membranes. Blotted membranes were blocked with 3% skimmed milk in TBS-T buffer (20 mM Tris pH 7.6, 150 mM NaCl, and 0.05% Tween 20) for 1 h followed by incubation with specific primary antibodies. Horseradish peroxidase (HRP)-conjugated goat anti-mouse, goat anti-rabbit, and mouse anti-goat IgG antibodies (Pierce, Thermo Fisher Scientific, Inc., Rockford, IL, USA) were used as secondary antibodies. Peroxidase activity was detected by chemiluminescence using an ECL kit (Intron, Seoul, Korea) following the manufacturer’s instructions. Bands were quantified using Image J software (National Institute of Health, NIH).
Cells were cultured on coverslips, washed with PBS, fixed with 4% paraformaldehyde (PFA) for 30 min at RT, and then permeabilized with 0.2% Triton X-100 at RT for 5 min. After treatment with blocking solution (anti-Human antibody diluted 1:400 in PBS) for 1 h, cells were incubated with anti-lamin A/C (1:400), anti-progerin (1:100), Ki67 (1:200), and anti-H3K9me3 (1:200) in blocking buffer overnight at 4 °C. Finally, cells were incubated with fluorescein isothiocyanate and rhodamine-conjugated secondary antibodies at 4 °C for 7 h. Nuclei were stained with DAPI (4, 6-diamidino-2-phenylindole) at RT for 10 min. After cells were washed three times with PBS, coverslips were mounted with mounting solution (H-5501; Vector Laboratories, Burlingame, CA, USA). Immunofluorescence signal was detected with a fluorescence microscopy (Zeiss and Logos).
Fig. S7. Therapeutic effect of SLC-D011 at a low concentration. […]
AG11513; B) dose-dependently. […]

SMILES: CC1(C)Oc2cc3oc(=O)ccc3cc2CC1OC(=O)C=Cc1cccnc1 (stereo not shown) [JH4]
- Progerin intensity after treatment with chemicals, Ave (AG03198, 2μM): 15.1057 AU
- Progerin intensity after treatment with chemicals (AG03198, 2μM): 13.2274 AU and 13.4377 AU and 18.652 AU
- Progerin intensity after treatment with chemicals, Ave (AG03198, 5μM): 4.247 AU
- Progerin intensity after treatment with chemicals (AG03198, 5μM): 1.2854 AU and 1.491 AU and 9.966 AU

SMILES: CC1(C)Oc2cc3oc(=O)ccc3cc2C[C@@H]1OC/C=C/c1ccccc1 [SLC-D011]
- Progerin intensity after treatment with SLC-D011, Ave (AG03198, 10nM, average (Fig S7C)): 7.117 AU
- Progerin intensity after treatment with SLC-D011 (AG03198, 10nM, single replicates (Fig S7C)): 5.32 AU and 7.51 AU and 8.52 AU
- Progerin intensity after treatment with SLC-D011, Ave (AG03198, 50nM, average (Fig S7C)): 3.183 AU
- Progerin intensity after treatment with SLC-D011 (AG03198, 50nM, single replicates (Fig S7C)): 2.38 AU and 3.11 AU and 4.06 AU
- Progerin intensity after treatment with SLC-D011, Ave (AG03198, 100nM, average (Fig S7C)): 1.91 AU
- Progerin intensity after treatment with SLC-D011 (AG03198, 100nM, single replicates (Fig S7C)): 2.22 AU and 1.69 AU and 1.82 AU
- Progerin intensity after treatment with SLC-D011, Ave (AG03198, 500nM, average (Fig S7C)): 1.503 AU
- Progerin intensity after treatment with SLC-D011 (AG03198, 500nM, single replicates (Fig S7C)): 2.58 AU and 0.9 AU and 1.03 AU
- Progerin intensity after treatment with SLC-D011, Ave (AG03198, 1μM, average (Fig S7C)): 0.68 AU
- Progerin intensity after treatment with SLC-D011 (AG03198, 1μM, single replicates (Fig S7C)): 1.32 AU and 0.45 AU and 0.27 AU
- Progerin intensity after treatment with chemicals, Ave (AG03198, 2μM): 1.893 AU
- Progerin intensity after treatment with SLC-D011, Ave (AG03198, 2μM, average (Fig S7C)): 0.14 AU
- Progerin intensity after treatment with chemicals (AG03198, 2μM): 1.798 AU and 1.397 AU and 2.484 AU
- Progerin intensity after treatment with SLC-D011 (AG03198, 2μM, single replicates (Fig S7C)): 0 AU and 0.23 AU and 0.19 AU
- Progerin intensity after treatment with chemicals, Ave (AG03198, 5μM): 0.1657 AU
- Progerin intensity after treatment with SLC-D011, Ave (AG03198, 5μM, average (Fig S7C)): 0.02333 AU
- Progerin intensity after treatment with chemicals (AG03198, 5μM): 0 AU and 0.123 AU and 0.3741 AU
- Progerin intensity after treatment with SLC-D011 (AG03198, 5μM, single replicates (Fig S7C)): 0 AU (2×) and 0.07 AU
- Progerin intensity after treatment with SLC-D011, Ave (AG11498, 10nM, average (Fig S7C)): 6.647 AU
- Progerin intensity after treatment with SLC-D011 (AG11498, 10nM, single replicates (Fig S7C)): 6.56 AU and 6.24 AU and 7.14 AU
- Progerin intensity after treatment with SLC-D011, Ave (AG11498, 50nM, average (Fig S7C)): 4.11 AU
- Progerin intensity after treatment with SLC-D011 (AG11498, 50nM, single replicates (Fig S7C)): 2.38 AU and 3.5 AU and 6.45 AU
- Progerin intensity after treatment with SLC-D011, Ave (AG11498, 100nM, average (Fig S7C)): 1.733 AU
- Progerin intensity after treatment with SLC-D011 (AG11498, 100nM, single replicates (Fig S7C)): 0 AU and 1.5 AU and 3.7 AU
- Progerin intensity after treatment with SLC-D011, Ave (AG11498, 500nM, average (Fig S7C)): 0.9 AU
- Progerin intensity after treatment with SLC-D011 (AG11498, 500nM, single replicates (Fig S7C)): 0 AU and 0.6 AU and 2.1 AU
- Progerin intensity after treatment with SLC-D011, Ave (AG11498, 1μM, average (Fig S7C)): 0.4533 AU
- Progerin intensity after treatment with SLC-D011 (AG11498, 1μM, single replicates (Fig S7C)): 0 AU (2×) and 1.36 AU
- Progerin intensity after treatment with SLC-D011, Ave (AG11498, 2μM, average (Fig S7C)): 0.3333 AU
- Progerin intensity after treatment with SLC-D011 (AG11498, 2μM, single replicates (Fig S7C)): 0 AU (2×) and 1 AU
- Progerin intensity after treatment with SLC-D011, Ave (AG11498, 5μM, average (Fig S7C)): 0.25 AU
- Progerin intensity after treatment with SLC-D011 (AG11498, 5μM, single replicates (Fig S7C)): 0 AU (2×) and 0.75 AU
- Progerin intensity after treatment with SLC-D011, Ave (AG11498, average (Fig S3H)): 1.892 AU
- Progerin intensity after treatment with SLC-D011 (AG11498, single replicates (Fig S3H)): 5.217 AU and 0.1632 AU and 0.2958 AU
- Progerin intensity after treatment with SLC-D011, Ave (AG11513, 10nM, average (Fig S7C)): 5.123 AU
- Progerin intensity after treatment with SLC-D011 (AG11513, 10nM, single replicates (Fig S7C)): 2.96 AU and 6.48 AU and 5.93 AU
- Progerin intensity after treatment with SLC-D011, Ave (AG11513, 50nM, average (Fig S7C)): 3.793 AU
- Progerin intensity after treatment with SLC-D011 (AG11513, 50nM, single replicates (Fig S7C)): 3.06 AU and 4.3 AU and 4.02 AU
- Progerin intensity after treatment with SLC-D011, Ave (AG11513, 100nM, average (Fig S7C)): 2.487 AU
- Progerin intensity after treatment with SLC-D011 (AG11513, 100nM, single replicates (Fig S7C)): 2.07 AU and 2.27 AU and 3.12 AU
- Progerin intensity after treatment with SLC-D011, Ave (AG11513, 500nM, average (Fig S7C)): 1.19 AU
- Progerin intensity after treatment with SLC-D011 (AG11513, 500nM, single replicates (Fig S7C)): 0.81 AU and 1.08 AU and 1.68 AU
- Progerin intensity after treatment with SLC-D011, Ave (AG11513, 1μM, average (Fig S7C)): 0.59 AU
- Progerin intensity after treatment with SLC-D011 (AG11513, 1μM, single replicates (Fig S7C)): 0.55 AU and 0.6 AU and 0.62 AU
- Progerin intensity after treatment with SLC-D011, Ave (AG11513, 2μM, average (Fig S7C)): 0.2167 AU
- Progerin intensity after treatment with SLC-D011 (AG11513, 2μM, single replicates (Fig S7C)): 0.27 AU and 0.22 AU and 0.16 AU
- Progerin intensity after treatment with SLC-D011, Ave (AG11513, 5μM, average (Fig S7C)): 0.09 AU
- Progerin intensity after treatment with SLC-D011 (AG11513, 5μM, single replicates (Fig S7C)): 0.2 AU and 0 AU and 0.07 AU
- Progerin intensity after treatment with SLC-D011, Ave (AG11513, average (Fig S3H)): 1.455 AU
- Progerin intensity after treatment with SLC-D011 (AG11513, single replicates (Fig S3H)): 1.494 AU and 1.1106 AU and 1.761 AU
- Concentration enough for eliminating progerin (HGPS cells): 100 nM
- Effect on progerin expression (HGPS cells): reduce progerin expression
- Progerin intensity after treatment with SLC-D011, Ave (N9, average (Fig S3H)): 0 AU
- Progerin intensity after treatment with SLC-D011 (N9, single replicates (Fig S3H)): 0 AU
